The values that follow come from US20260258049A1, “Molecules and Methods Related to Treatment of Uncontrolled Cellular Proliferation” (ST. JUDE CHILDREN'S RESEARCH HOSPITAL, priority 2019, published 2026).

Data set [1] deals with Human CD45+ leukemic cells purified from patient derived xenografts (PDX).
A further data set deals with MHH-CALL-4. The experiment in a line: Cytotoxicity assay (resazurin, 72 hours). The format is cell-based, human. (Resazurin is reduced to fluorescent resorufin, in cell work by metabolically active cells.)
The target in a further data set is T1, GSPT1 (Homo sapiens, UniProt P15170).
T1 construct: degradation of JAK2 and GSPT1 in MHH-CALL-4 cells; endogenous in cells; host or cells: MHH-CALL-4
T1 sequence (P15170 whole entry): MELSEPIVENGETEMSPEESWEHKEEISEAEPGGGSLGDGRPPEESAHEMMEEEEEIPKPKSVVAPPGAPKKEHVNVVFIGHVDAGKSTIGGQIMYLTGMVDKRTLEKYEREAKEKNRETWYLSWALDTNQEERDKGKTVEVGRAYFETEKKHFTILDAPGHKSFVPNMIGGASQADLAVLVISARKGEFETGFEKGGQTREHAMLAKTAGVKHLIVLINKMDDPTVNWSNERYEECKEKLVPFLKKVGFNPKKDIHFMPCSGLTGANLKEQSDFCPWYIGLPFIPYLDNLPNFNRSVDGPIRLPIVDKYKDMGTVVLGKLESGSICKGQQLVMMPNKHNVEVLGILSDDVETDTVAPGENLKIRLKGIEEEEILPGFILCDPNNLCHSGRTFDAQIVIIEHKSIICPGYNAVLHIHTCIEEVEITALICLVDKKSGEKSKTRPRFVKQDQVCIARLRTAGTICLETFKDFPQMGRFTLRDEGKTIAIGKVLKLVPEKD
As to the kind of experiment: Immunoblot protein degradation in MHH-CALL-4 cells. In kind it is cell-based. The method, then:
Cells were washed twice with ice-cold PBS and lysed in RIPA lysis buffer (Sigma) freshly supplemented with Halt™ Protease Inhibitor Cocktail (ThermoFisher) for 15 minutes on ice. The cell pellet was removed by centrifugation at 13,000 g at 4° C. for 15 minutes. Protein concentration was measured by BCA assay (Thermo Fisher Scientific). Proteins were denatured in NuPAGE LDS 4× sample buffer supplemented with reducing agents (Invitrogen). Typically, 10-20 µg of total protein was loaded per lane on a 4%-12% NuPAGE Bis-Tris gradient gel (Invitrogen) and analyzed by standard immunoblotting and imaged using Li-COR Odyssey CLx (LI-COR Biotechnology, Lincoln, NE). Primary antibodies used were: JAKI (Cell Signaling #3332S), JAK2 (#3230S), JAK3 (#8827S), TYK2 (#9312S), GSPT1 (#14980S), CRBN (#71810S), IKZF1 (Santa Cruz Biotechnology, SC-398265) and ACBT (Santa Cruz Biotechnology, SC-47778).
A general note: In western blotting, separated proteins are transferred to a membrane and probed.

A further data set concerns the target T2, JAK2 (Homo sapiens, UniProt O60674, I682F).
T2 construct: degradation of JAK2 and GSPT1 in MHH-CALL-4 cells; endogenous in cells; host or cells: MHH-CALL-4
The experiment in a line: Immunoblot protein degradation in MHH-CALL-4 cells. The format is cell-based.

Data set [2] has as its system JAK-STAT5 signaling pathway. As to the kind of experiment: Phosphoflow analysis in MHH-CALL-4 cells with or without TSLP. The format is cell-based, human. The note with it: 1 μM, one hour before TSLP 25 ng/mL for 30 minutes.
The subject of a further data set is Caco-2 cells. The experiment in a line: Caco-2 cell permeability. In kind it is in vitro ADME. On the procedure:
Compound Caco-2 cell permeability was determined using the Transwell® 0.4 μm polycarbonate membrane 96-well as described before (Uchida, et al. (2009) J Pharmacol Toxicol Methods 59(1): 39-43). Briefly, Caco-2 cells monolayers were incubated over 2 hours at 37° C. Fractions were collected from receivers (basal side, B), and concentrations were assessed by UPLC/MS (Waters; Milford, MA). All compounds were tested in triplicates. The A→B (or B→A) apparent permeability coefficients (Papp) of each compound were calculated using the equation, Papp=dQ/dt×1/AC0, where dQ/dt equals the flux of a drug across the monolayer, A equals the total insert well surface area, and CO is the initial concentration of substrate in the donor compartment.
In general terms: Caco-2 monolayers are a common model of the intestinal barrier.

Read-outs that look alike come from different tables or passages of the source.

For orientation: EC50 means the concentration at which the effect is half-maximal.

T2 sequence (O60674 whole entry I682F): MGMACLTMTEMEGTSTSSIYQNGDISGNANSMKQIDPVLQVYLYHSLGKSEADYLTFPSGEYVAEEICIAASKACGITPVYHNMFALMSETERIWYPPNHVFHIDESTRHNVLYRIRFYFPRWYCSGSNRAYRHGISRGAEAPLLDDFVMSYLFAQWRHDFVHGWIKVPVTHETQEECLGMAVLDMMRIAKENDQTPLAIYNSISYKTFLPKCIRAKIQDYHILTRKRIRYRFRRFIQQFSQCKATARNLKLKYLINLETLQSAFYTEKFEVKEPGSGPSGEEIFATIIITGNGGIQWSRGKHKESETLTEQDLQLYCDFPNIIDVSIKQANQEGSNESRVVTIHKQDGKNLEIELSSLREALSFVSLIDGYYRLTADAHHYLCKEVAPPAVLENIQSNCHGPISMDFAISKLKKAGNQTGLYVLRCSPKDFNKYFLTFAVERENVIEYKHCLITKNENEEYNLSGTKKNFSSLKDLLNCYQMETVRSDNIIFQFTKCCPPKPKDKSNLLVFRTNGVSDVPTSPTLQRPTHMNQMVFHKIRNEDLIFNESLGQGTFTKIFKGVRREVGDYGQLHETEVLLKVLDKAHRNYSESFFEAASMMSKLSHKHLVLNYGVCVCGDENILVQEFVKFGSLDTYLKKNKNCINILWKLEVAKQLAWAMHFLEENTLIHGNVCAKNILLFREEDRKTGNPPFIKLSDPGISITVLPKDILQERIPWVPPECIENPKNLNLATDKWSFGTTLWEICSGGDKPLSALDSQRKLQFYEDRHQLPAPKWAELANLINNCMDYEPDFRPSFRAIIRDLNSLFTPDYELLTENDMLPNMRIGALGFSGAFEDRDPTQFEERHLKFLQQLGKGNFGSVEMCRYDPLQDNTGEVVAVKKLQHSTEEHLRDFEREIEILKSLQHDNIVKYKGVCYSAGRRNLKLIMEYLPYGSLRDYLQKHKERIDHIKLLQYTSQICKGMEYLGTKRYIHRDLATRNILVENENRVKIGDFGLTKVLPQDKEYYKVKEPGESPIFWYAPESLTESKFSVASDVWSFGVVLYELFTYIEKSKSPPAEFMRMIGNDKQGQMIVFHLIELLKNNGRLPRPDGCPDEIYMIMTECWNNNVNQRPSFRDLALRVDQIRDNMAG

With `CC(=O)Nc1cc(Oc2ccc3c(nc(Nc4ccc(F)cc4F)n3C)c2C)ccn1` [CHZ868, reference compound], the “cytotoxicity in PDX cells ex vivo” value in data set [1] was “not”.
As to `CC(=O)NCCCNc1ccc2c(c1)C(=O)N(C1CCC(=O)NC1=O)C2=O` (stereo not shown) [Cmpd. no. 53], the “killing of MHH-CALL-4 cells / cytotoxicity, in words” value with MHH-CALL-4 is “intermediately effective”. Besides, the “extent of degradation of GSPT1” value on GSPT1 was “preferential”.
Turning to `CNCCCN1CCN(c2ccc3c(c2)C(=O)N(C2CCC(=O)NC2=O)C3=O)CC1` (stereo not shown) [Cmpd. no. 56], in the data set with MHH-CALL-4, the “killing of MHH-CALL-4 cells / cytotoxicity, in words” value is “intermediately effective”. Also, the “extent of degradation of JAK2” value at JAK2 is given as “preferential”.
Regarding `CC(=O)NCCCNC(=O)COc1cccc2c1C(=O)N(C1CCC(=O)NC1=O)C2=O` (stereo not shown) [Cmpd. no. 59], the “killing of MHH-CALL-4 cells / cytotoxicity, in words” value in the data set on MHH-CALL-4 is on record as “relatively low activity”. Also, the “extent of degradation of GSPT1” value at GSPT1 is “minimal activity on either target”. Moreover, the “extent of degradation of JAK2” value at JAK2 is reported as “minimal activity on either target”.
With `CNCCCCNc1ccc2c(c1)C(=O)N(C1CCC(=O)NC1=O)C2=O` (stereo not shown) [Cmpd. no. 80], in the data set with MHH-CALL-4, the “killing of MHH-CALL-4 cells / cytotoxicity, in words” value is “relatively low activity”. In addition, the “extent of degradation of GSPT1” value on GSPT1 is on record as “minimal activity on either target”. The “extent of degradation of JAK2” value on JAK2 was “minimal activity on either target”.
Consider `N#CC[C@H](C1CCCC1)n1cc(-c2nc(Nc3ccc(C(=O)NCCCCNc4cccc5c4C(=O)N(C4CCC(=O)NC4=O)C5=O)cc3)nc3[nH]ccc23)cn1` (stereo partly shown) [Compound 5], for which the “cytotoxicity in PDX cells ex vivo” value in data set [1] is “show cytotoxicity”. Besides, the EC50 in the data set on MHH-CALL-4 (Homo sapiens, MHHCALL4, Table 6, no star, read-out: HHCALL4 (nM), MHHCALL4 EC50) amounted to 784 nM. Besides, at GSPT1, the “extent of degradation of GSPT1” value was “degradation of GSPT1 was observed”. Further, in data set [2], the “JAK inhibition (phosphoflow)” value is given as “comparable JAK inhibition”.
For `CCS(=O)(=O)N1CC(CC#N)(n2cc(-c3nc(Nc4ccc(C(=O)NCCCCNc5cccc6c5C(=O)N(C5CCC(=O)NC5=O)C6=O)cc4)nc4[nH]ccc34)cn2)C1` (stereo not shown) [Compound 6], the “cytotoxicity in PDX cells ex vivo” value in data set [1] is “show cytotoxicity”. Further, the EC50 with MHH-CALL-4 (Table 6, no star, read-out: HHCALL4 (nM), MHHCALL4 EC50) is 1.52 nM. In data set [2], the “JAK inhibition (phosphoflow)” value is reported as “comparable JAK inhibition”.
With `CCS(=O)(=O)N1CC(CC#N)(n2cc(-c3nc(Nc4ccc(C(=O)NCCN5CCN(c6ccc7c(c6)C(=O)N(C6CCC(=O)NC6=O)C7=O)CC5)cc4)nc4[nH]ccc34)cn2)C1` (stereo not shown) [Compound 8], the entries for the “killing of MHH-CALL-4 cells / cytotoxicity, in words” value in the data set on MHH-CALL-4 and with MHH-CALL-4 (listed as compound 8) were “intermediately effective” and “reduced activity”, respectively.
On to `N#CC[C@H](C1CCCC1)n1cc(-c2ncnc3[nH]ccc23)cn1` [Ruxolitinib, reference compound], for which the EC50 in the data set with MHH-CALL-4 (Homo sapiens, MHHCALL4, read-out: HHCALL4 (nM), MHHCALL4 EC50) is 5800 nM.
Consider `CCCn1cc(-c2nc(Nc3ccc(C(=O)NCCCCNc4cccc5c4C(=O)N(C4CCC(=O)NC4=O)C5=O)cc3)nc3[nH]ccc23)cn1` (stereo not shown) [SJ000988497], for which the “Papp, Caco-2 assay” value with Caco-2 cells was 19.12 nm/s.
